Patent publication US9535067B2, “DOT1L probes” (DANA-FARBER CANCER INSTITUTE, INC., priority 2013, dated 2017)

Target: DOT1L (Homo sapiens, UniProt Q8TEK3)
Assay: Differential Scanning Fluorimetry (DFS) Assay
Assay type: binding
Excerpt: DFS enables assays suitable for high throughput screening assays for the effect of a small molecule on protein stability. DFS assays measures the thermal stability of a target protein and a subsequent increase in protein melting temperature upon binding of a ligand to the protein. Generally, specific binding will stabilize the protein. An exemplary protocol for performing a DFS for detecting the binding of (with or without a test compound) a fluorescence labeled probe to DOT1L, or an analog thereof, is as follows.
First, a protein solution comprising DOT1L or an active fragment thereof (e.g., DOT1L SET domain) is prepared in a suitable buffer at a desired concentration (e.g., 0.1 μM. 0.5 μM, 1.0 μM, 2.5 μM, 5.0 μM, 10 μM, 20 μM, or 100 μM). Then, a probe solution comprising a compound of formula (I), (le), (If) or (Ig) is prepared. A volume of the protein solution is combined with a volume of the probe solution in the presence or absence of a test compound. Binding of the probe to DOT1L or an active fragment thereof is then measured using a fluorometer.

DOT1L, sequence (Q8TEK3 whole entry, species assumed): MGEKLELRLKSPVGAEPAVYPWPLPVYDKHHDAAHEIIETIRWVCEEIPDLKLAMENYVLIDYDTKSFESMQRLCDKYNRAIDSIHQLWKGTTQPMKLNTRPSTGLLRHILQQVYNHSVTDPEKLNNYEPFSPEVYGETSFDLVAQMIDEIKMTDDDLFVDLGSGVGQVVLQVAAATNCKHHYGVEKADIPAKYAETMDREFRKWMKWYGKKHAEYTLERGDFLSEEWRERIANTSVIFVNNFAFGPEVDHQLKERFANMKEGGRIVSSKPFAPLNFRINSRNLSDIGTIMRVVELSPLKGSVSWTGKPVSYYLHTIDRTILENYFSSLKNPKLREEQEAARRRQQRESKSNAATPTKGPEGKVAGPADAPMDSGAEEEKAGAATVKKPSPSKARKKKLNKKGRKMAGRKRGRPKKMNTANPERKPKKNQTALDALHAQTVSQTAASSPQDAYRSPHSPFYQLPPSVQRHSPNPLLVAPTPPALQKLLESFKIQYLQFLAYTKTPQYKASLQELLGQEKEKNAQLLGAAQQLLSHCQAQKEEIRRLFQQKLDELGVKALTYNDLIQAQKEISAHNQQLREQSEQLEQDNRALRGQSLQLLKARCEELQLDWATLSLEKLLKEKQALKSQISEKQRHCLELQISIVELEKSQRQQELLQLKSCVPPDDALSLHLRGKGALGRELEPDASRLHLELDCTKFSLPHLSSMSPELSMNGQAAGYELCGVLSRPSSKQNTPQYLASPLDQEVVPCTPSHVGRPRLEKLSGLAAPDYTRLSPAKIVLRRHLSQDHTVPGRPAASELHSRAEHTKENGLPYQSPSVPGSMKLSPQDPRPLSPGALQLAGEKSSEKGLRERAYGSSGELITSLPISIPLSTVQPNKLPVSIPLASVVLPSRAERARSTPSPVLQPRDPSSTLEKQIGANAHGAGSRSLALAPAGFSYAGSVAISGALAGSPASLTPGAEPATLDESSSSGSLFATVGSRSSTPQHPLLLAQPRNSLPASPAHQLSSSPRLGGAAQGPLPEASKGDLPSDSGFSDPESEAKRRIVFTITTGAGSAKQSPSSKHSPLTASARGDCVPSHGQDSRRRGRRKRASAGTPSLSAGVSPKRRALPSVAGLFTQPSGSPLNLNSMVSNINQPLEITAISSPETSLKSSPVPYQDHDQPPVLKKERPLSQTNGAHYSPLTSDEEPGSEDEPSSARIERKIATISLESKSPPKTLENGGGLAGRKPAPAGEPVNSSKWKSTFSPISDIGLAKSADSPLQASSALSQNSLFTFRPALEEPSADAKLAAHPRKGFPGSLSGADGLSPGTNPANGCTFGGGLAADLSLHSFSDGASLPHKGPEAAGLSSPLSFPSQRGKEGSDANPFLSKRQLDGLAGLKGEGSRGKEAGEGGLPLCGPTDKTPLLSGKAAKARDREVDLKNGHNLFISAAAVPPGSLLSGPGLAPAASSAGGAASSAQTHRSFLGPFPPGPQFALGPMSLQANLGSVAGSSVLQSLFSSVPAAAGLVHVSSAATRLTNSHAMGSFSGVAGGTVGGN

- binding effect / binding affinity against DOT1L (thermal stabilisation, FIG. 1): reasonable binding affinity
SMILES: CC(C)N(CCCNC(=O)Nc1ccc(C(C)(C)C)cc1)C[C@H]1O[C@@H](n2cnc3c(NCCCC(=O)NCCCOCCOCCOCCCNC(=O)CCCC[C@@H]4SC[C@@H]5NC(=O)N[C@@H]54)ncnc32)[C@H](O)[C@@H]1O [JQPROB2B]
